Measured values reported in US6545032B1, “Synthesis of [3,5,7]-H-imidazo[1,5-a] imidazol-2(3H)-one compounds” (Torrey Pines Institute for Molecular Studies, priority 1999, dated 2003).

Assays:
kappa opiate receptor = target: T1, kappa opiate receptor (Cavia porcellus, UniProt P41144); test: Inhibition of tritiated U69,593 binding to the kappa opiate receptor in guinea pig brain homogenates; design: Mean: unit not given beside the values; conditions: 3 nm tritiated U69,593, guinea pig brain membranes; for % Bound: [3H]U69,593 bound; for % Inhibition: inhibition of [3H]U69,593 binding; for Mean: mean bound radioactivity of [3H]U69,593, 2.5 hours 25° C.; for Minus NSB: mean minus non-specific binding
T1 construct: guinea pig cortices and cerebella were homogenized in 40 mL of Buffer A; from tissue; host or cells: guinea pig cortices and cerebella, crude membrane suspension
T1 sequence (P41144 whole entry): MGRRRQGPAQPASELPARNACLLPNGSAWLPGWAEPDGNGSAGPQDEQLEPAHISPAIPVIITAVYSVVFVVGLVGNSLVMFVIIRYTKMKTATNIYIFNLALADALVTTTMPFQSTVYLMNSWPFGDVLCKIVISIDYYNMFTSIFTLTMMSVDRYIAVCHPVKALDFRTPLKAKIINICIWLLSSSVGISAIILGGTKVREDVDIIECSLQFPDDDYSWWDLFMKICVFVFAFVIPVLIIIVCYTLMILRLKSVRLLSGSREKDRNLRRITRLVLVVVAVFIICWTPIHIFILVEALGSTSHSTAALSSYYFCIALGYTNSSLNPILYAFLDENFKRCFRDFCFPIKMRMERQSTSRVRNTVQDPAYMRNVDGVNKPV
Description: The above-prepared library of individual compounds was screened for the ability to inhibit the binding of tritiated Compound U69,593 that is known to bind specifically to the kappa opiate receptor present in guinea pig brain homogenates following literature procedures. [Dooley et al., J. Biol. Chem., 273(30) 18848-18856 (1998)]
Briefly, guinea pig cortices and cerebella were homogenized in 40 mL of Buffer A [50 mM Tris-HCl, pH 7.4] at 4° C. Homogenates were centrifuged [Beckman® J2-HC, 35, 300×g] for 10 minutes. The pellets were resuspended in fresh buffer and incubated at 37° C. for 40 minutes. Following incubation, the suspensions were centrifuged as before, the resulting pellets resuspended in 100 volumes of Tris buffer, and the suspensions combined. Membrane suspensions were prepared and used on the same day. Protein content of the crude homogenates was determined by the method of Bradford, Anal. Biochem., 72:248-252 (1976).
Each assay tube contained 0.5 mL of membrane suspension, 3 nm of tritiated Compound U69,593 [(5a,7a,8b)-(−)-N-methyl-N-(7-(1-pyrrolidinyl)-1-oxaspiro(4,5)dec-8-yl)-benzeneacetamide; Lahti et al., European J. Pharmacol., 109:281-284(199-85)] in a total volume of 0.65 mL. Assay tubes were incubated for 2.5 hours a 25° C. The assay was then filtered through GF-B filters on a Tomec™ harvester (Orange, Conn.). The filters were subsequently washed with 6 mL of 50 mM Tris-HC1, pH 7.4 at 4° C. Bound radioactivity was counted on a Wallace™ Beta-plate Liquid Scintillation Counter (Piscataway, N.J.). Unlabeled U50, 488 [(trans-(dl)-3,4-dichloro-N-methyl-N-[2-(1-pyrrolidinyl)cyclohexyl]-benzeneacetamide) methane sulfonate hydrate; Lahti et al., Life Sci., 31:2257-xx(1982) and Von Voightlander et al., J. Pharmacol. Exp. Ther., 224:7 (1983)] was used as a competitive inhibitor to generate a standard curve and determine nonspecific binding. The results of these assays are shown in the table, below, wherein the “R” groups are as discussed for Example 1.

mu opiate receptor = target: T2, mu opiate receptor (Rattus norvegicus, UniProt P33535); test: Inhibition of [3H]DAMGO binding to the mu opiate receptor in rat brain homogenates; design: Mean: unit not given beside the values; conditions: 0.08 mg of compound per milliliter, 7 nM 3H-labeled DAMGO, rat brain membranes; for % Bound: [3H]DAMGO bound; for Mean: mean bound radioactivity of [3H]DAMGO; for Minus NSB*: mean minus non-specific binding; for % Inhibition: percent inhibition of DAMGO binding
T2 construct: from tissue; host or cells: rat brain membranes/homogenate
T2 sequence (P33535 whole entry): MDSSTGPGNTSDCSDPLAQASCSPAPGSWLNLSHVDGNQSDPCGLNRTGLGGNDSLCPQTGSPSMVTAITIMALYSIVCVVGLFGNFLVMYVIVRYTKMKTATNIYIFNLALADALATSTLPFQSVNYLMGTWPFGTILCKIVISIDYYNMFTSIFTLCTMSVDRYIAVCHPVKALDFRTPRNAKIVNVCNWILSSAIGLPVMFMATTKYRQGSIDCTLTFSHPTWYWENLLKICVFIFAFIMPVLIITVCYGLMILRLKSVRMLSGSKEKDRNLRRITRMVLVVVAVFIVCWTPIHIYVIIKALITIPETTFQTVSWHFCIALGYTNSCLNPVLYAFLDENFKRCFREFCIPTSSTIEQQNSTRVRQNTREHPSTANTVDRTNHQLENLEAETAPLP
Description: The previously prepared [3,5,7]-1H-imidazo[1,5-a]-imidazol-2(3H)-one library of individual compounds was screened for the ability to inhibit the binding of [^3H] [D-Ala^2,MePhe^4,Gly^5-ol]enkephalin (DAMGO) that is known to bind specifically to the mu opiate receptor present in rat brain homogenates following literature procedures. [Dooley et al., Science, 266:2019(1994); U.S. Pat. No. 5,763,193.]
Preparation of rat brain membranes and the receptor binding assay were carried out as described in Dooley et al., Life Sci., 52:1509(1993). Each tube in the screening assay contained 0.08 mg of compound mixture per milliliter, 0.5 mL of membrane suspension (0.1 mg of protein), 7 nM ^3H-labeled DAMGO [specific activity 36 Ci/mmol, obtained from the National Institute on Drug Abuse (NIDA) repository through Chiron Mimotopes PeptideSystems (San Diego, Calif.) and […] of peptide mixture in 50 mM Tris-HCl buffer (pH 7.4). The final volume was 0.65 mL. The results of these screenings are shown in the table, below, wherein the “R” groups are as discussed for Example 1. The results are reported as percent inhibition of DAMGO binding.

Compound	% Bound (kappa opiate receptor) [%]	% Inhibition (kappa opiate receptor) [%]	Mean (kappa opiate receptor)	Minus NSB (kappa opiate receptor)	% Bound (mu opiate receptor) [%]	Mean (mu opiate receptor)	Minus NSB* (mu opiate receptor)	% Inhibition (mu opiate receptor) [%]
CC(C)c1nc(C(C)(C)C)n2c1NC(=O)C2C(C)C (centres unmarked) [Pool 135]	69.170	30.830	1623.6	716.60	65	931.85	623.85	35
CC(C)CCc1nc(C(C)C)c2n1C(C(C)C)C(=O)N2 (centres unmarked) [Pool 127]	66.178	33.822	1592.6	685.60	63	909.6	601.60	37
CCC(CC)c1nc(C(C)C)c2n1C(C(C)C)C(=O)N2 (centres unmarked) [Pool 157]	54.638	45.362	1473.05	566.05	65	930.35	622.35	35
Cc1nc(C(C)C)c2n1C(Cc1ccccc1)C(=O)N2 (centres unmarked) [Pool 30]	74.884	25.116	1682.8	775.80	65	929.9	621.90	35
CCC(C)C1C(=O)Nc2c(C(C)C)nc(C)n21 (centres unmarked) [Pool 5]	75.043	24.957	1684.45	777.45	78	1052.8	744.80	22
CC(C)c1nc(CC23CC4CC(CC(C4)C2)C3)n2c1NC(=O)C2C(C)C (centres unmarked) [Pool 156]	78.803	21.197	1723.4	816.40	65	925.85	617.85	35
Cc1nc(Cc2ccc(O)cc2)c2n1C(C(C)C)C(=O)N2 (centres unmarked) [Pool 48]	84.653	15.347	1784	877.00	44	728.5	420.50	56
Cc1nc(Cc2ccccc2)c2n1C(C(C)C)C(=O)N2 (centres unmarked) [Pool 47]	104.469	−4.469	1989.3	1082.30	62	897.8	589.80	38
CCCc1nc(C)n2c1NC(=O)C2C(C)C (centres unmarked) [Pool 45]	85.275	14.725	1790.45	883.45	62	902.55	594.55	38
CCCCCCc1nc(C(C)C)c2n1C(C(C)C)C(=O)N2 (racemic) [Pool 122]	51.805	48.195	1443.7	536.70	53	817.3	509.30	47
Cc1nc(CC(C)C)c2n1C(C(C)C)C(=O)N2 (centres unmarked) [Pool 53]	106.356	−6.356	2008.85	1101.85	71	988.95	680.95	29
Cc1nc(C(C)C)c2n1C(CC1CCCCC1)C(=O)N2 (centres unmarked) [Pool 29]	88.277	11.723	1821.55	914.55	61	891.65	583.65	39
CCCCc1nc(C)n2c1NC(=O)C2C(C)C (centres unmarked) [Pool 44]	110.299	−10.299	2049.7	1142.70	67	947.55	639.55	33
Cc1nc(CC2CCCCC2)c2n1C(C(C)C)C(=O)N2 (centres unmarked) [Pool 46]	121.815	−21.815	2169	1262.00	60	881.4	573.40	40
CC(C)c1nc(CCCc2ccccc2)n2c1NC(=O)C2C(C)C (racemic) [Pool 113]	61.597	38.403	1545.15	638.15	43	716.3	408.30	57
CC(C)Cc1nc(C(C)C)c2n1C(C(C)C)C(=O)N2 (centres unmarked) [Pool 125]	62.384	37.616	1553.3	646.30	48	763.7	455.70	52
